Measured values published in patent US3985790A, “Phenoxyalkane carboxylic acid derivative” (priority 1974, dated 1976).
Like-named read-outs stand apart in the source and are kept apart here.

Legend:
[1] = Acute toxicity (LD50); details: mouse, in vivo
[2] = tested on: serum cholesterol and serum triglyceride levels; test: Antilipemic effect in young male rats, fatty diet 2 (high cholesterol-high fat), 14 days oral; assay type: in vivo, SPF-Wistar rats; details: fatty diet 2, 250 mg/kg oral
From the text: In these tests the compound in a vehicle was supplied orally for a period of 14 days. Twenty-four hours after the last dose blood analyses were made for determining the serum cholesterol and serum triglyceride levels. In a second series young male rats of 80-90 grams weight were fed a fat and cholesterol-rich diet (fatty diet 2). The statistical significance (p) of the results is also given.

[3] = tested on: serum cholesterol and serum triglyceride levels; assay type: in vivo, SPF-Wistar rats; details: 14 days
From the text: (§1) The therapeutic effectiveness of the salt of this invention ("clofibrinate") was compared with that of the fundamental parent substance, namely the 4-(p-chlorophenoxyacetylamino)-benzoic acid diethylaminoethyl ester, as well as clofibrate, that is the ethyl ester of clofibrinic acid, using SPF-Wistar rats. In these tests the compound in a vehicle was supplied orally for a period of 14 days. Twenty-four hours after the last dose blood analyses were made for determining the serum cholesterol and serum triglyceride levels.
In a first series of experiments, the effectiveness was studied in rats having normal blood lipid levels which were made hyperlipemic by means of a special fatty diet 1. This cholesterol-rich fatty diet 1 corresponded to that of Berger et al., Proc. Soc. Ex. Biol. (1969) 132,293.

[4] = tested on: blood serum cholesterol and lipid levels; test: Effect on blood serum cholesterol and lipid levels, tolerability and toxicity, general statements; assay type: in vivo, SPF-Wistar rats; details: hyperlipemic conditions
From the text: as §1
In a first series of experiments, the effectiveness was studied in rats having normal blood lipid levels which were made hyperlipemic by means of a special fatty diet 1. This cholesterol-rich fatty diet 1 corresponded to that of Berger et al., Proc. Soc.
In a second series young male rats of 80-90 grams weight were fed a fat and cholesterol-rich diet (fatty diet 2). The statistical significance (p) of the results is also given.

[5] = tested on: human lipid metabolism; details: French Pat. No. 1,552,793; cited from earlier work
[6] = fatty diet 1, 1000 mg/kg oral, 3 of 10 animals died

SMILES	LD50 [1]	Decrease of triglycerides [2]	Final Value Cholest. [2]	Final Value Triglycerides [2]	Decrease of cholesterol ([3]; fatty diet 1, 250 mg/kg oral)	Decrease of triglycerides ([3]; fatty diet 1, 250 mg/kg oral)	Final Value Cholest. ([3]; fatty diet 1, 250 mg/kg oral)	Final Value Triglycerides ([3]; fatty diet 1, 250 mg/kg oral)	Decrease of cholesterol [3, 6]	Final Value Cholest. [3, 6]	Final Value Triglycerides [3, 6]	effectiveness against elevated cholesterol and elevated triglyceride levels [4]	influence on human lipid metabolism [5]	Decrease of cholesterol ([3]; fatty diet 1, 100 mg/kg oral)	Final Value Cholest. ([3]; fatty diet 1, 100 mg/kg oral)	Final Value Triglycerides ([3]; fatty diet 1, 100 mg/kg oral)
CCOC(=O)C(C)(C)Oc1ccc(Cl)cc1 [Clofibrate, ethyl-2-(p-chlorophenoxy)-isobutyrate]	1150 mg/kg	20.6%	133.3 mg %	107.7	3.0%	12.5%	347.9 mg%	75.6	31.6%	245.4 mg%	120.3	only slightly effective under hyperlipemic conditions or even fails completely	–	–	–	–
CCN(CC)CCOC(=O)c1ccc(NC(=O)COc2ccc(Cl)cc2)cc1 [Parent Compound, 4-(p-chlorophenoxyacetylamino)-benzoic acid diethylaminoethyl ester]	–	–	–	–	24.9%	–	269.4 mg%	101.6	–	–	–	–	have an influence on human lipid metabolism	7.8%	330.6 mg%	114.9
